Key:
Assay type in all cases: cell-based, Streptococcus mutans
[1] = tested on: S. mutans strain (JCM5075); experiment: Example 3: pH of S. mutans culture in BHI broth with test substance after 48-hour culturing; conditions: 10% test substance, BHI broth, after 48-hour culturing
Method: Allitol and D-sorbose were used to assay the actions thereof against S. mutans. Allitol and D-sorbose were supplied from the Rare Sugar Research Center, the National University Corporation Kagawa University. The S. mutans strain (JCM5075) was plated in a Brain Heart Infusion broth containing a 10% test substance, to measure the pH of the liquid culture after 48-hour culturing. As a control, 1% sucrose and 10% Xylitol were used.

[2] = tested on: S. mutans strain MT 8148 (JCM5175); experiment: Example 2: bacterial growth (OD 660 nm) and pH of S. mutans culture in phenol red broth with 1% test substance; conditions: PRB broth, 37° C., 48 hours later; for OD: bacterial growth, absorbance at 660 nm
Method: D-Psicose and L-psicose were used to assay the actions thereof against S. mutans. D-Psicose and L-psicose were supplied from the Rare Sugar Research Center, the National University Corporation Kagawa University. The S. mutans strain MT 8148 (JCM5175) was plated in a Brain Heart Infusion broth supplemented with agar for culturing at 37° C. for 48 hours. The liquid culture was inoculated in a fresh Brain Heart Infusion broth, for culturing at 37° C. for 24 hours. The liquid culture was inoculated in a phenol red broth (PRB broth) containing a test substance at 1%, for culturing at 37° C.; the bacterial growth (absorbance at 660 nm: OD) and the pH were assayed 48 hours later. Asa control, glucose, fructose, sucrose and Xylitol were used. After culturing for a given period of time, additionally, the optical density of apart of the liquid culture was measured with an absorptiometer (OD 660 nm).

[3] = tested on: S. mutans strain JCM5075; experiment: Example 1: optical density and pH of S. mutans JCM5075 cultures in BHI broth with rare sugars, with or without sucrose; conditions: for pH 0 hour later / pH 6 hours later / pH 8 hours later / pH 12 hours later / pH 24 hours later / Optical density (OD) 12 hours later / suppression of OD increase compared with no addition: BHI broth; for Optical density (OD) 12 hours later: OD600; for suppression of the pH reduction: also with 1% sucrose addition; for suppression of OD increase compared with no addition: FIG. 2 / Table 1
Excerpt: S. mutans strains characteristically form insoluble glucan on addition of sucrose, to generate acids and reduce the pH of the culture medium, which is considered to cause decalcification of teeth on dental surface to form decayed teeth (the reason why the strains are designated bacteria causing decayed teeth). JCM 5075 of S. mutans strains and the Brain Heart Infusion (BHI) broth were used to assay the optical density (the increase of the number of the bacterial cells) and the pH change in individual rare sugar solutions with or without sucrose added. As the rare sugars, there were used D-fructose, L-fructose, D-sorbose, L-sorbose, D-psicose, L-psicose, D-tagatose and L-tagatose. The rare sugars used were supplied from the Rare Sugar Research Center, the National University Corporation Kagawa University.
The strain JCM5075 thawed from −80° C. stock was cultured for 48 hours, and was adjusted to OD 0.3. 100 μl of the resulting culture was added to each 2-ml portion of the BHI broths under individual conditions, to assay the optical density and the pH 24 hours later (observation with naked eyes and absorbance: OD600).
After collecting a part of the liquid culture and centrifuging the culture, the pH of the resulting supernatant was measured with a pH meter. The results are shown in Table 2 (0, 6, 8, 12 and 24 hours after the addition of the bacteria to the BHI broth) and FIG. 3.

[4] = 10% test substance + 1% sucrose

SMILES	pH 0 hour later ([3]; 5% test substance + 1% sucrose)	pH 6 hours later ([3]; 5% test substance + 1% sucrose)	pH 8 hours later ([3]; 5% test substance + 1% sucrose)	pH 12 hours later ([3]; 5% test substance + 1% sucrose)	pH 24 hours later ([3]; 5% test substance + 1% sucrose)	pH 0 hour later ([3]; 5% test substance, no sucrose)	pH 6 hours later ([3]; 5% test substance, no sucrose)	pH 8 hours later ([3]; 5% test substance, no sucrose)	pH 12 hours later ([3]; 5% test substance, no sucrose)	pH 24 hours later ([3]; 5% test substance, no sucrose)	pH 0 hour later [3, 4]	pH 6 hours later [3, 4]	pH 8 hours later [3, 4]	pH 12 hours later [3, 4]	pH 24 hours later [3, 4]	Optical density (OD) 12 hours later ([3]; 10% test substance)	pH 0 hour later ([3]; 10% test substance, no sucrose)	pH 6 hours later ([3]; 10% test substance, no sucrose)	pH 8 hours later ([3]; 10% test substance, no sucrose)	pH 12 hours later ([3]; 10% test substance, no sucrose)	other results
OC[C@@H](O)[C@@H](O)[C@@H](O)[C@@H](O)CO [Allitol]																					pH [1]: 5.6; pH ([1]; listed as allitol): ≥ 5.5
O=C[C@H](O)[C@@H](O)[C@H](O)[C@H](O)CO [D-Glucose, reference compound]																					pH [2]: 3.9; OD [2]: 0.26
O=C(CO)[C@@H](O)[C@H](O)[C@H](O)CO [D-fructose, reference compound]	7.4	7.2	7.2	7.2	5.0	7.4	7.2	7.2	7.2	4.7	7.3	7.2	7.2	7.2	5.1	0.114	7.3	7.2	7.2	7.2	pH change 24 hours later (in words) ([3]; 1% sucrose, or 10% Xylitol+1% sucrose, or 10% fructose+1% sucrose, FIG. 3): highly inclined to acidity; pH 24 hours later ([3]; 10% test substance, no sucrose): 6.5; precipitation of bacterial masses (insoluble glucan) under observation with naked eyes ([3]; addition of 1% sucrose, addition of 10% D-fructose, 24 hours later): caused the precipitation of bacterial masses (insoluble glucan)
O=C(CO)[C@@H](O)[C@@H](O)[C@H](O)CO [D-tagatose]	7.3	7.2	7.2	7.2	6.9	7.3	7.2	7.2	7.2	7.0	7.1	7.0	7.0	7.0	6.9	0.132	7.1	7.0	7.0	7.0	pH 24 hours later ([3]; 10% test substance, no sucrose): 6.9; suppression of the pH reduction ([3]; 24 hours later, FIG. 3): pH reduction was suppressed; suppression of OD increase compared with no addition [3]: suppression of OD increase was observed
O=C(CO)[C@H](O)[C@@H](O)[C@@H](O)CO [L-fructose]	7.3	7.2	7.2	7.2	5.0	7.4	7.2	7.2	7.2	4.7	7.3	7.2	7.2	7.2	6.7	0.037	7.3	7.2	7.2	7.2	pH [2]: 4.0; OD [2]: 0.20; pH 24 hours later ([3]; 10% test substance, no sucrose): 6.5; suppression of the pH reduction ([3]; 24 hours later, FIG. 3): pH reduction was suppressed; suppression of OD increase compared with no addition [3]: suppression of OD increase was observed
O=C(CO)[C@@H](O)[C@@H](O)[C@@H](O)CO [L-psicose]	7.3	7.2	7.2	7.2	6.2	7.3	7.2	7.2	7.2	6.8	7.2	7.1	7.0	7.0	6.9	0.067	7.2	7.1	7.0	7.0	pH [2]: 5.9; OD [2]: 0.02; pH 24 hours later ([3]; 10% test substance, no sucrose): 6.9; suppression of the pH reduction ([3]; 24 hours later, FIG. 3): pH reduction was suppressed; suppression of OD increase compared with no addition [3]: suppression of OD increase was observed
O=C(CO)[C@@H](O)[C@H](O)[C@@H](O)CO [L-sorbose]	7.4	7.2	7.2	7.2	5.3	7.4	7.2	7.2	7.2	5.9	7.3	7.2	7.2	7.2	6.4	0.463	7.3	7.2	7.2	7.2	pH 24 hours later ([3]; 10% test substance, no sucrose): 7.1
O=C(CO)[C@H](O)[C@H](O)[C@@H](O)CO [L-tagatose]	7.3	7.2	7.2	7.2	6.0	7.3	7.2	7.2	7.2	6.6	7.1	7.0	6.9	6.9	6.8	0.026	7.1	7.0	6.9	6.9	pH 24 hours later ([3]; 10% test substance, no sucrose): 6.8; suppression of the pH reduction ([3]; 24 hours later, FIG. 3): pH reduction was suppressed; suppression of OD increase compared with no addition [3]: suppression of OD increase was observed
